Results from the NIST ThermoML archive (doi:10.1016/j.tca.2013.07.005).

How the values were obtained:
[1] = Molar enthalpy of transition or fusion; conditions: Crystal; DSC
[2] = Crystal; for vapor or sublimation pressure: Transpiration method; for Normal melting temperature: DTA

CC(=O)c1ccc(NC2=NCCC3(CCCCC3)S2)cc1
Conditions	Molar enthalpy of transition or fusion [kcal/mol]	Normal melting temperature [°C]
[1]	7.77	–
[2]	–	163.5

[2]
Conditions	vapor or sublimation pressure [kPa]
373.15 K	4.1e-09
375.15 K	5.3e-09
377.15 K	6.8e-09
379.15 K	8.8e-09
381.15 K	1.13e-08
383.15 K	1.46e-08
385.15 K	1.87e-08
386.15 K	2.15e-08
387.15 K	2.52e-08
388.15 K	2.87e-08
390.15 K	3.44e-08
391.15 K	3.72e-08
392.15 K	4.46e-08
393.15 K	5.03e-08
394.15 K	5.5e-08
396.15 K	7.28e-08
397.15 K	7.97e-08

O=C(NC1=NCCC2(CCCCC2)S1)c1ccccc1 [N-(1-thia-3-azaspiro[5.5]undec-2-en-2-yl)benzamide]
Conditions	Molar enthalpy of transition or fusion [kcal/mol]	Normal melting temperature [°C]
[1]	6.67	–
[2]	–	130.2

[2]
Conditions	vapor or sublimation pressure [kPa]
353.15 K	2.2e-09
354.15 K	2.3e-09
357.15 K	3.1e-09
360.15 K	3.8e-09
363.15 K	4.8e-09
366.15 K	5.8e-09
368.15 K	6.8e-09
371.15 K	8.9e-09
373.15 K	1.06e-08
375.15 K	1.28e-08
377.15 K	1.4e-08
378.15 K	1.51e-08
380.15 K	1.85e-08
381.15 K	2e-08
383.15 K	2.26e-08
386.15 K	2.87e-08

COc1ccc(NC2=NCCC3(CCCCC3)S2)cc1 [N-(4-methoxyphenyl)-1-thia-3-azaspiro[5.5]undec-2-en-2-amine]
Conditions	Molar enthalpy of transition or fusion [kcal/mol]	Normal melting temperature [°C]
[1]	6.52	–
[2]	–	115.4

[2]
Conditions	vapor or sublimation pressure [kPa]
353.15 K	3.4e-09
355.15 K	4.7e-09
358.15 K	6.5e-09
360.15 K	9.5e-09
362.15 K	1.15e-08
365.15 K	1.64e-08
367.15 K	2.17e-08
369.15 K	2.73e-08
371.15 K	3.63e-08
373.15 K	4.28e-08
375.15 K	5.23e-08
377.15 K	6.63e-08
381.15 K	9.73e-08
